Reference: the supplement of paper PMC8967900

What follows are compounds tested on COG-LL-402h (assay: selective drug sensitivity score (sDSS, relative to normal bone marrow) (sDSS (score)); higher = more potent and effective on the cell line relative to normal bone marrow cells). Conditions: 72 h.
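Note: ALL cell lines in 384-well plates, five doses spanning 10,000-fold, each plate scaled between vehicle and 100 µmol/L benzalkonium chloride controls, sDSS an adapted area-under-curve metric.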

Compound | selective drug sensitivity score
Cc1c(-c2ccc(N3CCc4cccc(C(=O)Nc5nc6ccccc6s5)c4C3)nc2C(=O)O)cnn1CC12CC3CC(CC(C3)C1)C2 (top concentration 1000 nM) | 16.5
O=C(NOC[C@H](O)CO)c1ccc(F)c(F)c1Nc1ccc(I)cc1F (top concentration 1000 nM) | 1.84
CO[C@@H](C)Cn1c(=O)n(C)c2cnc3ccc(-c4cncc(C(C)(C)O)c4)cc3c21 (top concentration 2500 nM) | 5.48
Cc1cccc(CC(=O)N2CCc3c2ccc(-c2cn(C)c4ncnc(N)c24)c3F)n1 (top concentration 2500 nM) | -0.68
CNC(=O)c1ccccc1Nc1nc(Nc2ccc3c(c2OC)CCC[C@H](N2CCN(CCO)CC2)C3)ncc1Cl (top concentration 5000 nM) | -0.84
COc1cc2ncnc(Oc3cccc(NC(=O)Nc4cc(C(C)(C)C(F)(F)F)on4)c3)c2cc1OC (top concentration 10000 nM) | 0.3
C[C@@H](Oc1cc(-n2cnc3ccc(CN4CCN(C)CC4)cc32)sc1C(N)=O)c1ccccc1C(F)(F)F (top concentration 10000 nM) | 16.2
Nc1nccc(-c2c(-c3ccc(F)cc3)ncn2C2CCCCC2)n1 (top concentration 10000 nM) | 0.7
O=C(O)c1ccc(-c2c[nH]c3ncc(-c4ccccc4)cc23)cc1C1CCCC1 (top concentration 10000 nM) | -1.44
C[C@@H]1CN(CC(=O)Nc2ccc3c(c2)Cc2cccc(-c4cc(=O)cc(N5CCOCC5)o4)c2S3)C[C@H](C)O1 (top concentration 25000 nM) | 1.92
COc1ccc2[nH]cc(/C=C3\C(=O)Nc4ccc(NC(=O)CCN5CCCCC5)cc43)c2c1 (top concentration 50000 nM) | 1.18
Cc1nn(C)c(COc2ccc(N3CCN(S(=O)(=O)N(C)C)CC3)cc2)c1-c1cccc2c(CCCOc3cccc4ccccc34)c(C(=O)O)n(CCN3CCOCC3)c12 (top concentration 50000 nM) | 4.26
C[C@H](Nc1ncnc2[nH]cnc12)c1cc2ccc(F)cc2nc1-c1ccccn1 [AMG319] (top concentration 1000 nM) | 5.88
C=CCn1c(=O)c2cnc(Nc3ccc(N4CCN(C)CC4)cc3)nc2n1-c1cccc(C(C)(C)O)n1 [AZD1775] (top concentration 10000 nM) | 10.2
NC(=O)Nc1cc(-c2cccc(F)c2)sc1C(=O)N[C@H]1CCCNC1 [AZD7762] (top concentration 1000 nM) | 3.3
Cc1cc([C@@H](C)Nc2ccccc2C(=O)O)c2nc(N3CCOCC3)cc(=O)n2c1 [AZD-6482] (top concentration 2500 nM) | 6.52
CN(C)Cc1c(C(=O)NCCOc2ccc(C(=O)NO)cc2)oc2ccccc12 [Abexinostat] (top concentration 10000 nM) | 13.4
S=C(NCc1ccc2c(c1)OCO2)N1CCN(c2ncnc3c2oc2ccccc23)CC1 [Amuvatinib] (top concentration 10000 nM) | 2.36
CC(=O)OC[C@H]1O[C@@H]([S-])[C@H](OC(C)=O)[C@@H](OC(C)=O)[C@@H]1OC(C)=O.CCP(CC)CC.[Au+] [Auranofin] (top concentration 2500 nM) | 7.84

What follows are compounds tested on HPB-ALL in the same assay as above. Conditions: 72 h.

Compound | selective drug sensitivity score
Cc1c(-c2ccc(N3CCc4cccc(C(=O)Nc5nc6ccccc6s5)c4C3)nc2C(=O)O)cnn1CC12CC3CC(CC(C3)C1)C2 (top concentration 1000 nM) | 25.5
O=C(NOC[C@H](O)CO)c1ccc(F)c(F)c1Nc1ccc(I)cc1F (top concentration 1000 nM) | 0.74
CO[C@@H](C)Cn1c(=O)n(C)c2cnc3ccc(-c4cncc(C(C)(C)O)c4)cc3c21 (top concentration 2500 nM) | 2.18
Cc1cccc(CC(=O)N2CCc3c2ccc(-c2cn(C)c4ncnc(N)c24)c3F)n1 (top concentration 2500 nM) | -0.68
CNC(=O)c1ccccc1Nc1nc(Nc2ccc3c(c2OC)CCC[C@H](N2CCN(CCO)CC2)C3)ncc1Cl (top concentration 5000 nM) | 1.66
COc1cc2ncnc(Oc3cccc(NC(=O)Nc4cc(C(C)(C)C(F)(F)F)on4)c3)c2cc1OC (top concentration 10000 nM) | 0
C[C@@H](Oc1cc(-n2cnc3ccc(CN4CCN(C)CC4)cc32)sc1C(N)=O)c1ccccc1C(F)(F)F (top concentration 10000 nM) | 11.6
Nc1nccc(-c2c(-c3ccc(F)cc3)ncn2C2CCCCC2)n1 (top concentration 10000 nM) | 0.4
O=C(O)c1ccc(-c2c[nH]c3ncc(-c4ccccc4)cc23)cc1C1CCCC1 (top concentration 10000 nM) | 0.06
C[C@@H]1CN(CC(=O)Nc2ccc3c(c2)Cc2cccc(-c4cc(=O)cc(N5CCOCC5)o4)c2S3)C[C@H](C)O1 (top concentration 25000 nM) | 2.22
COc1ccc2[nH]cc(/C=C3\C(=O)Nc4ccc(NC(=O)CCN5CCCCC5)cc43)c2c1 (top concentration 50000 nM) | -3.32
Cc1nn(C)c(COc2ccc(N3CCN(S(=O)(=O)N(C)C)CC3)cc2)c1-c1cccc2c(CCCOc3cccc4ccccc34)c(C(=O)O)n(CCN3CCOCC3)c12 (top concentration 50000 nM) | 2.16
C[C@H](Nc1ncnc2[nH]cnc12)c1cc2ccc(F)cc2nc1-c1ccccn1 [AMG319] (top concentration 1000 nM) | -1.42
C=CCn1c(=O)c2cnc(Nc3ccc(N4CCN(C)CC4)cc3)nc2n1-c1cccc(C(C)(C)O)n1 [AZD1775] (top concentration 10000 nM) | 9.44
NC(=O)Nc1cc(-c2cccc(F)c2)sc1C(=O)N[C@H]1CCCNC1 [AZD7762] (top concentration 1000 nM) | -1.5
Cc1cc([C@@H](C)Nc2ccccc2C(=O)O)c2nc(N3CCOCC3)cc(=O)n2c1 [AZD-6482] (top concentration 2500 nM) | 2.92
CN(C)Cc1c(C(=O)NCCOc2ccc(C(=O)NO)cc2)oc2ccccc12 [Abexinostat] (top concentration 10000 nM) | 6.76
S=C(NCc1ccc2c(c1)OCO2)N1CCN(c2ncnc3c2oc2ccccc23)CC1 [Amuvatinib] (top concentration 10000 nM) | 2.66
CC(=O)OC[C@H]1O[C@@H]([S-])[C@H](OC(C)=O)[C@@H](OC(C)=O)[C@@H]1OC(C)=O.CCP(CC)CC.[Au+] [Auranofin] (top concentration 2500 nM) | 5.64

What follows are compounds tested on JURKAT in the same assay as above. Conditions: 72 h.

Compound | selective drug sensitivity score
Cc1c(-c2ccc(N3CCc4cccc(C(=O)Nc5nc6ccccc6s5)c4C3)nc2C(=O)O)cnn1CC12CC3CC(CC(C3)C1)C2 (top concentration 1000 nM) | 7.34
O=C(NOC[C@H](O)CO)c1ccc(F)c(F)c1Nc1ccc(I)cc1F (top concentration 1000 nM) | -3.96
CO[C@@H](C)Cn1c(=O)n(C)c2cnc3ccc(-c4cncc(C(C)(C)O)c4)cc3c21 (top concentration 2500 nM) | 2.98
Cc1cccc(CC(=O)N2CCc3c2ccc(-c2cn(C)c4ncnc(N)c24)c3F)n1 (top concentration 2500 nM) | 8.22
CNC(=O)c1ccccc1Nc1nc(Nc2ccc3c(c2OC)CCC[C@H](N2CCN(CCO)CC2)C3)ncc1Cl (top concentration 5000 nM) | -2.54
COc1cc2ncnc(Oc3cccc(NC(=O)Nc4cc(C(C)(C)C(F)(F)F)on4)c3)c2cc1OC (top concentration 10000 nM) | 0
C[C@@H](Oc1cc(-n2cnc3ccc(CN4CCN(C)CC4)cc32)sc1C(N)=O)c1ccccc1C(F)(F)F (top concentration 10000 nM) | 22.8
Nc1nccc(-c2c(-c3ccc(F)cc3)ncn2C2CCCCC2)n1 (top concentration 10000 nM) | 0.1
O=C(O)c1ccc(-c2c[nH]c3ncc(-c4ccccc4)cc23)cc1C1CCCC1 (top concentration 10000 nM) | 0.16
